Values joined by “and” are separate entries in the source; they are usually repeats but may differ in a detail not shown here. Equal entries are not always repeated. Where two headings read alike, the source gives them in different places. Marks after values point to notes of the source that are not given here.
Key:
[1] = tested on: rat having its nigral depaminergic neuron destroyed; assay: Methamphethamine-induced rotational movement after 6-hydroxydopamine lesion and fetal dopaminergic cell transplantation; format: in vivo; conditions: for Average of Rotational Movement of Rats (Average + S.D.): group average; for Average of Rotational Movement of Rats (Average + S.D.) / Number of Rotational Movement of Rats: 30 mg/kg; for Number of Rotational Movement of Rats: individual rat, 30 mg/kg every day for two weeks from transplantation; for remedy of motor disturbance: result in words
Source text: The nigral dopaminergic neuron of the brain of a rat was chemically destroyed by injecting a very small quantity of 6-hydroxydopamine to cause motor disturbance.
After the lapse of two weeks, a fetal brain dopaminergic cell was transplanted on the Nucleus caudatus of the rat brain to try to remedy the motor disturbance.
The nigral depaminergic neuron at the left side of the brain of a female Wister family rat aged 4-weeks (Body Weight: l00 g) was destroyed by injecting a very small quantity of 6-hydroxydopamine.
After two weeks from the destruction by the administration of the drug, portions of the […] containing dopamin cells (i.e. substantia nigra and the Tegmentum at the abdomen side) were extracted from the fetal rat brain of a fetal rat of l4 to l7 days age, cut finely, and treated with trypsin. Then, the extracted tissues were incubated at 37°C for 30 minutes, and the tissues were subjected to pipetting to form a suspension. 5 µl each of the suspensions were transplanted on two sites of the Nucleus caudatus of the destructed side, the total of l0 µl (containing about l0⁵ cells) being transplanted.
The rotational movements caused by administration of methamphethamine were examined at the time point before 2 weeks of the transplantation (- 2W), at the time point before one week of the transplantation (- lW) and at the time point after two weeks of the transplantation (2W). The number of rotational movements within one minute were counted at l0 minute intervals after six administrations of methamphethamine, and the total number of rotational movements counted for the six times was averaged to find the mean rotational movement. As controls, the numbers of rotational movements of the rats administered, respectively, with a ganglioside mixture and GM₁ ganglioside were counted.

[2] = tested on: male ddy mice; assay: Acute toxicity test; format: in vivo; conditions: result in words
Method: (§1) The compound (I) was administered through two administration routes, i.e. orally and intravenous injection, to the groups each consisting of five male ddy mice, while increasing the dosage amounts little by little.
(§2) From the time immediately after the administration to the lapse of 7 days, the general syndrome and death of the mice were inspected. The medial lethal dose (LD₅₀) was calculated, through the Probit method, from the mortality rate at the 7th day from the beginning of administration. LD₅₀ = 58l mg/kg (through intraveous injection) 5000 mg/kg (through oral administration)

[3] = Acute toxicity test; format: in vivo; conditions: mouse, in vivo, mortality at the 7th day, Probit method, read-out: LD₅₀
Method: as §1, §2

[4] = tested on: rats having their sciatic nerves crushed; assay: Curing effect on rats with crushed sciatic nerve (distance between toes, weight of musculi soleus); format: in vivo, rat; conditions: for Recovery Rate (%) in Distance between the Fingers / Recovery Rate (%) in Weight of the Muscle: ip once per day, average ± S.D.; for Recovery Rate (%) in Weight of the Muscle: 28th Day
Method: The curing effect of the compound (I) of the invention on the rats having their sciatic nerves crushed, which were used as models caused by peripheral nervous disturbances, was assessed by examining (l) the change in action of the crushed hind leg and (2) the change in weight of the muscle as indicators for the modification of peripheral nerve and for the recovery course of the disturbance.
In the experiment, seven male Wister family rats (6 weeks age) were used per a group. The sciatic nerve of each rat was crushed in accordance with the method of Yamazu et al. (see Kiyomi Yamazu, Takenori Kaneko, Akifumi Kitahara and Isao Ohkawa, Journal of Japanese Pharmacological Society, 72, 259 - -268 (l976)) and in accordance with the method of Hasegawa et al. (see Kazuo Hasegawa, Naoji Mikuni and Yutaka Sakai, Journal of Japanese Pharmacological Society, 74, 72l - 734 (l978)). Specifically, under anesthesia with Pentobarbital (40 mg/kg, i.p.), the left sciatic nerve was exposed at the femur and the site 5 mm centrally from the branch portion between the N. tibialis and the N. suralis was crushed using a modified artery klemme having a width of 2 mm and gap of 0.l mm. Rats subjected to the operation were randomly dispensed to form the groups subjected to test.
The compound (I) of the invention was intraperitoneally administered one time per day from the day on which the nerve was crushed to the 22nd day. The control groups included a group administered with Mecobalamin (produced by Gedeon Richter Ltd.), a group administered with a 20% aqueous solution of propylene glycol (hereinafter referred to as 20% PG) which was used to dissolve the compound (I) of the invention, and a group administered with a 0.9% aqueous saline solution. The predetermined measurements were conducted with the lapse of time after the crushing operation (at the first, fourth, seventh, tenth, l4th, l5th, l7th, l9th 2lst and 28th days).
The distance between the toes was measured, since this is a good indicator showing the modification and recovery of the function of the nerve and the change thereof could conveniently measured with the lapse of time.
The measurement was conducted in accordance with the method of Hasegawa, (Hasegawa, K., Experientia, 34, 750 - 75l (l978)) by measuring the distance from the first toe to the fifth toe of the hind leg.
The ratio of the distance at the crushed side to the distance at the normal side was calculated as a percentage (%), the average values and the standard deviations (S.D.) being shown in Table 5.
It is known that removal of or disturbance in a certain nerve causes atrophy of the muscle controlled by the nerve, and the atrophy is gradually recovered by the recontrol by the nerve. For this reason, the quantitative change in weight of the muscle was selected as an indicator. At 28th day after the operation, the muscli soleus of both hind legs were extracted under anesthesia with Pentobarbital, and the weights of the muscles were weighed. The weight ratio of the muscli soleus at the crushed side to the muscli soleus at the normal side was calculated and represented by percentage (%).

[5] = - 1W (before transplantation and dosing)
[6] = - 2W (before transplantation and dosing)

SMILES: CCCCCCCCCCCCCCOCC(COC1(C(=O)O)CC(O)C(NC(C)=O)C(C(O)C(O)CO)O1)OCCCCCCCCCCCCCC (stereo not drawn) [Compound (I)]
- Average of Rotational Movement of Rats (Average + S.D.) ([1]; 2W after transplantation): 2.8+4.0*
- Average of Rotational Movement of Rats (Average + S.D.) [1, 5]: 12.3+3.8
- Average of Rotational Movement of Rats (Average + S.D.) [1, 6]: 8.2+3.2
- Number of Rotational Movement of Rats ([1]; 2W after transplantation): 5.3 and 3.2 and 5.8
- Number of Rotational Movement of Rats [1, 5]: 17.4 and 12.2 and 8.4 and 11.0
- Number of Rotational Movement of Rats [1, 6]: 12.2 and 5.8 and 5.4 and 9.5
- remedy of motor disturbance [1]: effect of promoting the remedy of motor disturbance similar to the ganglioside mixtures
- remedy of motor disturbance ([1]; listed as compound (I)): had a function of remedying the nerves similar to gangliosides
- toxicity [2]: extremely low toxicity
- LD50 at 168 h ([3]; intravenous injection): 581 mg/kg
- LD50 at 168 h ([3]; oral administration): 5000 mg/kg
- Recovery Rate (%) in Distance between the Fingers ([4]; 17th Day, 3 mg/kg, crushed side / normal side): 71.5 ± 5.5 %
- Recovery Rate (%) in Distance between the Fingers ([4]; 17th Day, 30 mg/kg): 80.4 ± 9.6 %
- Recovery Rate (%) in Distance between the Fingers ([4]; 19th Day, 3 mg/kg): 82.1 ± 9.7%
- Recovery Rate (%) in Distance between the Fingers ([4]; 19th Day, 30 mg/kg): 90.3 ± 4.4 %
- Recovery Rate (%) in Weight of the Muscle ([4]; 3 mg/kg, musculi soleus, crushed side / normal side): 82.8 ± 6.7%
- Recovery Rate (%) in Weight of the Muscle ([4]; 30 mg/kg): 89.1 ± 5.7%
- recovery of the distance between the toes and the weight of the musculi soleus ([4]; result in words): promoted the recovery to the normal values

— patent EP0260606A2, “Medicament for curing neurotic disturbance or disorder comprising sialocylglycerolipid” (MECT CORPORATION, priority 1986, dated 1988)
